# Data from publication PMC9491098, “Discovery of novel drug-like antitubercular hits targeting the MEP pathway enzyme DXPS by strategic application of ligand-based virtual screening” (Chemical Science, 2022).
# Like-named read-outs stand apart in the source and are kept apart here.
# Columns and labels:
# DrDXPS (WT) = DrDXPS (WT) (Deinococcus radiodurans, UniProt Q9RUB5); conditions: pseudo-inhibitors; cited from earlier work
# MtDXPS [1] = biological target: T1, MtDXPS (Mycobacterium tuberculosis, UniProt P9WNS3); assay: biochemical
# MtDXPS [2] = biological target: T1, MtDXPS; assay: biochemical; conditions: for Ki: MtDXPS
# [3] = Table 1A, indole derivatives, read-out: K i*
# [4] = Table 1B, oxime derivatives, read-out: K i*
# [5] = Table S3, third round of LBVS, MtDXPS, read-out: IC50
# [6] = Table 1C, aminothiazole derivatives, read-out: K i*
# [7] = Table S1, first round of LBVS, MtDXPS, read-out: IC50
# T1 sequence (P9WNS3 whole entry, looked up): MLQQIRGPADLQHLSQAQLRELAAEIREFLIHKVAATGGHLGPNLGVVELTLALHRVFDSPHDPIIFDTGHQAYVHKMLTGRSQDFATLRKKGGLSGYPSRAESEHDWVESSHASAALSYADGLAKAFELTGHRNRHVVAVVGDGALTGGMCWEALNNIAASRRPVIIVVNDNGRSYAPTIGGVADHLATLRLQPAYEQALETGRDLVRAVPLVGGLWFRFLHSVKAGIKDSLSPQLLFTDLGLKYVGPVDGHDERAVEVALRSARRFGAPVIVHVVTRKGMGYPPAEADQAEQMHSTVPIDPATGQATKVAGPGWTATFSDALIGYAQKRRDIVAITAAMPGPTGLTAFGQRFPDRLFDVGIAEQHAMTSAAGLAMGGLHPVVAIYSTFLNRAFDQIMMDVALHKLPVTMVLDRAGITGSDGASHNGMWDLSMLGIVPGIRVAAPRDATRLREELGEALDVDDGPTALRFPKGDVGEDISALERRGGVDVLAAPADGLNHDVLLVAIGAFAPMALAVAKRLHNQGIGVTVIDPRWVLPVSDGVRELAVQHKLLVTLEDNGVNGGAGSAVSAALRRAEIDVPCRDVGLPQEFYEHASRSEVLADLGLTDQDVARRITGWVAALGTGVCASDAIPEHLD
# Sequence of DrDXPS (WT) (Q9RUB5 whole entry, looked up): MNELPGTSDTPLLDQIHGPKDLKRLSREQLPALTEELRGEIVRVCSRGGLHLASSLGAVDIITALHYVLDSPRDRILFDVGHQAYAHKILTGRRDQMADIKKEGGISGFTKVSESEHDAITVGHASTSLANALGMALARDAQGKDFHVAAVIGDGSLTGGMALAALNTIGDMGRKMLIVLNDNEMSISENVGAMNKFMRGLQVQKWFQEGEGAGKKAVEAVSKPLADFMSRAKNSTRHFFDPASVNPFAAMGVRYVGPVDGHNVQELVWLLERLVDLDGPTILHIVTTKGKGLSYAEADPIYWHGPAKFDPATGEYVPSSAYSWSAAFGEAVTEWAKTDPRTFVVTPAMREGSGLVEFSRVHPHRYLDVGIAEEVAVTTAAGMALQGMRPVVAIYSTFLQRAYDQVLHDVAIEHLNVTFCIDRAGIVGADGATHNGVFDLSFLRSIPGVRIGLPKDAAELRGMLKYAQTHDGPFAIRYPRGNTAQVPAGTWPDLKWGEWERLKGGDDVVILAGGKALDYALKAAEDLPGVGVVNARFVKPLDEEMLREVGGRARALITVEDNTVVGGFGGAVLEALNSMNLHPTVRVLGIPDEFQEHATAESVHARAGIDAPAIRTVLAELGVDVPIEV
structure (smiles),measurement,setting,value
"COc1cncc(Cn2ccnc2)c1 [Compound 1, reference compound]",inhibition of DrDXPS,DrDXPS (WT),weak inhibitors
same,IC50,MtDXPS [1],> 2000 µM
"OCc1cc(CO)n(CCc2c[nH]cn2)n1 [Compound 2, reference compound]",inhibition of DrDXPS,DrDXPS (WT),weak inhibitors
same,IC50,MtDXPS [1],> 2000 µM
CC(C)c1ccc(C(C)N2Cc3nc(N)ncc3C2=O)cc1 (stereo not drawn) [Compound 4],IC50,MtDXPS [1]; IC50 against MtDXPS,1020 ± 88 µM
Cc1nc(C)c(-c2csc(Nc3cccc(Cl)c3C)n2)s1 [Compound 8],IC50,MtDXPS [1]; IC50 against MtDXPS,117 ± 25 µM
O=Cc1cn(Cc2ccc(Cl)c(Cl)c2)c2ccccc12 [Compound 13],Ki,"MtDXPS [2]; K i* (μM), Table 1A, indole derivatives",> 10 µM
COCc1cn(Cc2ccc(Cl)c(Cl)c2)c2ccccc12 [Compound 14],Ki,MtDXPS [2]; [3],> 5 µM
OCc1cn(Cc2cccc(Cl)c2)c2ccccc12 [Compound 15],Ki,MtDXPS [2]; [3],> 10 µM
OCc1cn(Cc2ccc(Cl)cc2)c2ccccc12 [Compound 16],Ki,MtDXPS [2]; [3],5.5 ± 0.6 µM
N#Cc1ccc2c(CO)cn(Cc3ccc(Cl)c(Cl)c3)c2c1 [Compound 18],Ki,MtDXPS [2]; [3],1.7 ± 0.3 µM
COc1cccc2c(CO)cn(Cc3ccc(Cl)c(Cl)c3)c12 [Compound 19],Ki,MtDXPS [2]; [3],1.4 ± 0.3 µM
CO/N=C(\Cc1ccc(Cl)cc1)c1ccc(O)cc1O [Compound 20],Ki,MtDXPS [2]; [4],> 10 µM
N/N=C(\Cc1ccc(Cl)cc1)c1ccc(O)cc1O [Compound 21],"inhibitory activity against MtDXPS, SAR statement",MtDXPS [2]; SAR discussion of Table 1A–C,activity is partially retained
same,Ki,MtDXPS [2]; [4],0.4 ± 0.05 µM
COc1ccc(C/C(=N\O)c2ccc(O)cc2O)cc1 [Compound 22],Ki,MtDXPS [2]; [4],> 10 µM
COc1ccc(/C(Cc2ccc(Cl)cc2)=N/O)c(O)c1 [Compound 24],Ki,MtDXPS [2]; [4],0.5 ± 0.1 µM
Cc1nc(N)sc1-c1csc(Nc2ccccc2)n1 [Compound 26],IC50,MtDXPS [1]; [5],> 120 µM
same,Ki,MtDXPS [2]; [6],> 10 µM
Cc1nc(N)sc1-c1csc(Nc2ccccc2C(F)(F)F)n1 [Compound 27],Ki,MtDXPS [2]; [6],0.3 ± 0.02 µM
Cc1nc(N)sc1-c1csc(Nc2cccc(C(F)(F)F)c2)n1 [Compound 28],Ki,MtDXPS [2]; [6],0.4 ± 0.06 µM
Oc1ccc(-c2csc(Nc3cccc(C(F)(F)F)c3)n2)c(O)c1 [Compound 29],Ki,MtDXPS [2]; [6],0.5 ± 0.04 µM
Cc1nc(N)sc1-c1csc(Nc2ccc(Cl)cn2)n1 [Compound 30],Ki,MtDXPS [2]; [6],0.3 ± 0.1 µM
Cc1nc(C)c(-c2csc(Nc3ccc(Cl)cn3)n2)s1 [Compound 31],IC50,MtDXPS [1]; [5],> 500 µM
same,Ki,MtDXPS [2]; [6],> 10 µM
CSc1ccc(C2N=C(N)Nc3nc4ccccc4n32)cc1 (stereo not drawn) [Compound 37],IC50,MtDXPS [1]; [7],> 60 µM
Cc1sc(N)c(C(=O)c2ccccc2)c1C [Compound 38],IC50,MtDXPS [1]; [7],> 120 µM
Cc1n[nH]c(O)c1C1OC(=O)c2ccccc21 (stereo not drawn) [Compound 39],IC50,MtDXPS [1]; [7],> 1000 µM
CCn1c(S)nnc1-c1csc2c1CCCC2 [Compound 40],IC50,MtDXPS [1]; [7],> 240 µM
Cc1ccccc1-n1c(S)nnc1-c1csc2c1CCCC2 [Compound 41],IC50,MtDXPS [1]; [7],> 8 µM
Cc1nn(CCc2nnc(S)n2Cc2ccccc2)c(C)c1Br [Compound 42],IC50,MtDXPS [1]; [7],> 30 µM
Oc1ncnc(O)c1C(c1cccs1)c1c(O)ncnc1O [Compound 43],IC50,MtDXPS [1]; [7],> 500 µM
Cc1cccc(C(=O)N2CCC(C(N)=O)CC2)c1 [Compound 44],IC50,MtDXPS [1]; IC50 (μM),> 1000 µM
Cc1nc(-c2ccccc2)nc(Nc2ccccc2)c1Cc1ccccc1 [Compound 45],IC50,MtDXPS [1]; [7],> 15 µM
COc1ccc2[nH]cc(C3NC(N)=Nc4nc5ccccc5n43)c2c1 (stereo not drawn) [Compound 46],IC50,MtDXPS [1]; [7],> 500 µM
CC(C)c1ccc(CN(C(=O)COc2ccccc2)c2ccccn2)cc1 [Compound 47],IC50,MtDXPS [1]; [7],> 30 µM
O=C(O)CCc1ccc(-c2ccc(F)cc2)n1Cc1ccco1 [Compound 48],IC50,MtDXPS [1]; [7],> 500 µM
Cc1ccc(C2NC(N)=Nc3nc4ccccc4n32)o1 (stereo not drawn) [Compound 49],IC50,MtDXPS [1]; [7],> 1000 µM
COc1cc(Cl)c(/C=C2\SC(=S)N(CC(=O)O)C2=O)c(OC)c1 [Compound 50],IC50,MtDXPS [1],> 240 µM
Nn1c(S)nnc1Cn1cnc2ccccc21 [Compound 51],IC50,MtDXPS [1]; [7],> 1000 µM
CCNC(=S)Nc1ccc(Cc2ccncc2)cc1 [Compound 52],IC50,MtDXPS [1]; [7],> 240 µM
O=C(O)Cc1ccc(-n2cnnn2)cc1 [Compound 53],inhibition at 1000 μM,MtDXPS [1],~ 25 % inhibition
S=c1[nH]ccn1Cc1ccccc1 [Compound 54],IC50,MtDXPS [1]; [7],> 500 µM
Cc1cc(C(=O)O)c(-c2ccccc2)o1 [Compound 55],IC50,MtDXPS [1]; [7],> 1000 µM
O=C1NC(=O)C(c2ccccc2)N1 (stereo not drawn) [Compound 56],IC50,MtDXPS [1]; [7],> 1000 µM
N=C1NC(=O)C(CC(N)=O)S1 (stereo not drawn) [Compound 57],IC50,MtDXPS [1]; [7],> 1000 µM
CN(C)Cc1ccc(O)cc1 [Compound 58],IC50,MtDXPS [1]; [7],> 1000 µM
C=CCN1C(=O)N/C(=C/c2ccc(O)c(OCC)c2)C1=O [Compound 59],IC50,MtDXPS [1]; [7],> 30 µM
O=C1N/C(=C/c2ccc(O)c(I)c2)C(=O)N1c1ccc(Cl)cc1 [Compound 60],IC50,MtDXPS [1]; [7],> 120 µM
OCc1cccnc1-c1nc2ccccc2s1 [Compound 61],IC50,MtDXPS [1]; [7],> 60 µM
COc1ccc(OC)c(C2CC(=O)NC3=C2C(=O)CCC3)c1 (stereo not drawn) [Compound 63],IC50,MtDXPS [1]; [7],> 500 µM
CC(C)(CO)NCc1cccs1 [Compound 64],IC50,MtDXPS [1]; [7],> 1000 µM
O=c1c2ncccc2nc(O)n1Cc1cccnc1 [Compound 65],IC50,MtDXPS [1]; [7],> 240 µM
COCC(=O)N(C)Cc1cn(C)nc1C [Compound 66],IC50,MtDXPS [1]; [7],> 1000 µM
